The values below are quoted from earlier work in patent US12611397B1, “Pharmaceutical composition of darolutamide” (ORION CORPORATION, priority 2019, dated 2026).

As to `CC(O)c1cc(C(=O)N[C@@H](C)Cn2ccc(-c3ccc(C#N)c(Cl)c3)n2)[nH]n1` (stereo partly drawn) [Darolutamide, N—((S)-1-(3-(3-chloro-4-cyanophenyl)-1H-pyrazol-1-yl)-propan-2-yl)-5-(1-hydroxyethyl)-1H-pyrazole-3-carboxamide], the Solubility in water entry is “poorly soluble in water”.
